13 molecules from patent US10435388B2, “Selective inhibitors of clinically important mutants of the EGFR tyrosine kinase” (CS PHARMATECH LIMITED, priority 2016, dated 2019) can be followed below.

Read-outs that look alike come from different tables or passages of the source.

A word on the IC50: it is the point on the concentration scale where inhibition reaches its midpoint.

For assay [1], the system named is p-EGFR in PC9 cells (Exon 19 deletion EGFR). The experiment in a line: Exon19 deletion EGFR (activating single mutant) PC-9 cellular autophosphorylation assay. The class given is cell-based, human. Particulars: 2 h treatment, ELISA. As to the method: (§1) Cellular EGFR Autophosphorylation Assays.
The human lung cell line PC9 (Exon 19 deletion EGFR) is obtained from the American type Culture Collection. […] Cells are grown in a humidified incubator at 37° C. with 5% CO2, Assays to measure cellular phosphorylation of endogenous p-EGFR in cell Iysates are carried out according to the protocol described in the R&D Systems DuoSet IC Human Phospho-EGF R ELISA (R&D Systems catalogue number #DYCI095). 40 μL of cells are seeded (10000 cells/well) in growth medium in Corning black, clear-bottomed 384-well plates and incubated at 37° C., with 5%0/CO2 overnight. […] Plates are incubated for a further 2 h, then following aspiration of medium, 40 μL×lysis buffer is added to each well. Greiner black high bind 384 well plates are coated with capture antibody and then blocked with 3% BSA. Following removal of block, 15 μL of lysate are transferred to the Greiner black high bind 384 well plates and incubated for 2 hours. Following aspiration and washing of the plates with PBS, 20 μL of detection antibody are added and incubated for 2 hours. […] The data obtained with each compound are exported into a suitable software package (such as Origin) to perform curve fitting analysis.
(In general: In an ELISA, binding on a coated surface is turned into a signal by an enzyme label.)

Assay [2] relates to p-EGFR in A431 cells (wild type EGFR, EGF stimulated). Nature of the assay: Wild type EGFR A431 autophosphorylation inhibition assay (ELISA). The class given is cell-based, human. Particulars: 2 h treatment, EGF stimulation 10 min. As to the method: as §1
Wild Type EGFR A431 Autophosphorylation Inhibition Assay (ELISA).
After 2 hour treatment with test compounds, add 4.5 μL of EGF (1 μg/mL) into each well and stimulate for 10 min. The rest of the procedure was processed in the same manner as described above for H1975 cells.

The test system of assay [3] is PC9 cells (SM). Nature of the assay: PC-9 growth inhibition assay (cell proliferation), Method B. The class given is cell-based, human. Particulars: cellular proliferation, several runs.
For assay [4], the system named is p-EGFR in H1975 cells (L858R/T790M double mutant EGFR).
Experimental: H1975 cells were cryopreserved in liquid nitrogen. […] Remove the vial from liquid nitrogen and thaw rapidly by placing at 37° C. in a water bath with gentle agitation for 1-2 minutes and then decontaminated by wiping with 70% ethanol before opening in a Class II biological safety cabinet. Transfer the vial contents drop-wise into 10 mL of cell culture medium in a sterile 15 mL conical tube. Then centrifuged the tube at 200× g for 5 minutes and aspirate the supernatant. Re-suspend the cell pellet with 1 mL of fresh cell culture medium and transfer it in to the T75 flask containing cell culture medium.
To passage H1975 cells, firstly, the adherent cells were rinsed with Trypsin/EDTA. Then add Trypsin/EDTA (3 mL for a T75 flask) into the flask and swirl to ensure the cells coated with trypsin evenly. Then incubate the flasks at 37° C. until the cells detach. Add equal volume of cell culture medium to stop the reaction. Collect the detached cells and centrifuged at 200× g for 5 minutes followed by re-suspended in fresh culture medium. Then, the cells were transferred into a new T75 flask containing cell culture medium. Cells were sub-cultured three times per week at a ratio of 1:4 in culture medium.
Harvest cells from flask into cell culture medium and the cell numbers counted using Automated Cell Counter (Thermo Fisher Scientific, Countess™). Dilute the cells into 250,000 cells/mL with culture medium and add 40 μL of cell suspension into each well of 384-well cell culture plate as designated. The final concentration was 10,000 cells/well. The plates were covered with lid and placed in 37° C. 5% CO2 incubator overnight for cell attachment.
On the second day, test compounds were dissolved in DMSO at 10 mM. […] The same volume of DMSO was adopted as high control.
Place the plate back to 37° C. 5% CO2 incubator for 2 hours. Replace the medium of each well with ice-cold HBSS. Then remove the HBSS, add 30 μL cell lysis buffer into each well and shake the plates for 30 mins on a plate shaker. Centrifuge for 5 min at 1,000 rpm to remove bubbles and transfer 25 uL of the lysate supernatant for p-EGFR assay by using a commercial ELISA kit (R&D, DYC1095B-5).
For estimation of IC50, the absorption readout are transformed to % relative activity by applying the following equation
[formula] The IC50 was then calculated by fitting in XLFit (IDBS, Guildford, Surrey) to a four parameters logistic curve.
For assay [5], the system named is H1975 cells (DM). Nature of the assay: H1975 inhibition assay (cell proliferation), Method B. The class given is cell-based. Particulars: cellular proliferation, several runs.
The test system of assay [6] is A431 cells (WT). Nature of the assay: A431 inhibition assay (cell proliferation), Method B. The class given is cell-based, human. Particulars: cellular proliferation, several runs. As to the method:
Cell Proliferation Assays—Method B
A431 Inhibition Assay, (Cell Proliferation).
The rest procedure was conducted in the same manner as described above for H1975 cells.

In assay [7] the target is T1, INSR (Homo sapiens, UniProt P06213).
T1 construct: purchased CARNA BIOSCIENCE 08-142
The experiment in a line: INSR inhibition assay (Caliper EZ Reader). The class given is biochemical. The note with it: enzyme assay. The method, then: (§2) Test compound was dissolved in DMSO at 30 mM. […] 20 nL of these compounds DMSO dilutes were dispensed into a new 384-well assay plate by Echo 550. […] 15 uL of kinase assay buffer containing INSR protein and substrate was transferred to assay plate and incubate at RT for 30 minutes. Kinase assay buffer supplemented with substrate peptides was employed as low control to monitor the background. 40 LM ATP was prepared in kinase assay buffer containing and 5 μL of ATP solution was added to each well to start the reaction. The assay plate was incubated at 25° C. for 180 minutes and the reaction was stopped by adding 40 μL of 0.5 M EDTA.
The result is analyzed in the same manner of […].

The target in assay [8] is T2, IGF-1R (Homo sapiens, UniProt P08069).
T2 construct: purchased CARNA BIOSCIENCE 08-141
The experiment in a line: IGF-1R inhibition assay (Caliper EZ Reader). Particulars: enzyme assay. The class given is biochemical. The method, then: as §2, with “IGF-1R” for “INSR”, “μM” for “LM”
Phosphorylated fluorescent-tagged peptides were differentiated from non-phosphorylated peptides by separating using Caliper EZ Reader II and the detection was directly converted to conversion ratio.

[9] abbreviates: cellular EGFR autophosphorylation.
[10] abbreviates: read-out: H1975 IC50, cellular EGFR autophosphorylation, 2 h treatment, ELISA.
Setting [11] is: Homo sapiens, A-431, cellular EGFR autophosphorylation.
Setting [12] is: Homo sapiens, NCI-H1975, 2 h, read-out: H1975 IC50 (nM), cellular EGFR autophosphorylation, 2 h treatment, ELISA.

T1 sequence (P06213 989-1382 limits assumed): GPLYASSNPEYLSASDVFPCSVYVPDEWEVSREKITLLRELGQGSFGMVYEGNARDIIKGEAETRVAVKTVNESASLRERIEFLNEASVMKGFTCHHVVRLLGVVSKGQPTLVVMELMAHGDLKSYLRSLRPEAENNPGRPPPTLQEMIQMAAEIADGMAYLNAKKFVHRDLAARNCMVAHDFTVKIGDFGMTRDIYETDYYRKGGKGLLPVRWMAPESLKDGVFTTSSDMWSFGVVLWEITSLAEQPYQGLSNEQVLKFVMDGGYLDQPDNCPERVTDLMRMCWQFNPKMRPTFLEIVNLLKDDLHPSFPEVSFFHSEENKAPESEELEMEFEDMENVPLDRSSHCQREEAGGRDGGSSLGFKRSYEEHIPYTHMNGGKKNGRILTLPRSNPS
T2 sequence (P08069 959-1367 limits assumed): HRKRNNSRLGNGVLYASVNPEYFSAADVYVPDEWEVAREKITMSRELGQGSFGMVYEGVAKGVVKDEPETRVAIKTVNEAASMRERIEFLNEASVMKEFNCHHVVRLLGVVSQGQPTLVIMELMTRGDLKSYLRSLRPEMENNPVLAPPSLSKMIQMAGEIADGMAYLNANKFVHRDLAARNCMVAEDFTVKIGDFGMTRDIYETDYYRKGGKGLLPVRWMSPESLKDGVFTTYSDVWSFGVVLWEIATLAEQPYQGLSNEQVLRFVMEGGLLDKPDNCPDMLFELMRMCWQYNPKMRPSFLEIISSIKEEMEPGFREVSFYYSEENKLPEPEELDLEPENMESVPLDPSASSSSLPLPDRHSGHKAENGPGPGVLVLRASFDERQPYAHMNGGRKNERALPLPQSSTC

In the case of `C=CC(=O)N[C@@H]1CN(c2nc(Nc3cn(C)nc3OC)c3ncn(C)c3n2)C[C@H]1F` [PF-06747775], the IC50 in assay [1] came out at 7.49 nM; in assay [2] (setting [9]) it was 78.2 nM; in assay [3] (72 h), 7.1 nM; in assay [4] (setting [10]), 8 nM; in assay [5] (72 h), 27.8 nM; in assay [6] (72 h), 657 nM.
As for `C=CC(=O)Nc1cc(Nc2nccc(-n3nc(N(C)C)c4ncccc43)n2)c(OC)cc1N(C)CCN(C)C` [Example 55, N-(5-(4-(3-(Dimethylamino)-1H-pyrazolo[4,3-b]pyridin-1-yl)pyrimidin-2-ylamino)-2-(N-(2-(dimethylamino)ethyl)-N-methylamino)-4-methoxyphenyl) acrylamide], the IC50 in assay [1] (Homo sapiens, PC-9, 2 h) was 15.5 nM; in assay [2] (setting [11]) it was 106 nM; in assay [7], 1200 nM; in assay [3] (Homo sapiens, PC-9, 72 h), 9.09 nM; in assay [4] (setting [12]), 4.07 nM; in assay [5] (Homo sapiens, NCI-H1975, 72 h), 3.93 nM. In addition, the IC50 is 2800 nM in assay [6] (Homo sapiens, A-431, 72 h) and 1300 nM in assay [8].
For the molecule `C=CC(=O)Nc1cc(Nc2nccc(-c3cnc(NC)c(C(C)=O)c3)n2)c(OC)cc1N(C)CCN(C)C` [Example 27, N-(5-((4-(5-Acetyl-6-(methylamino)pyridin-3-yl)pyrimidin-2-yl)amino)-2-((2-(dimethylamino)ethyl)(methyl)amino)-4-methoxyphenyl) acrylamide], the IC50 turned out to be 17.8 nM in assay [1] (Homo sapiens, PC-9, 2 h); 200 nM in assay [2] (setting [11]); 13200 nM in assay [7]; 13.4 nM in assay [3] (Homo sapiens, PC-9, 72 h); 6.78 nM in assay [4] (setting [12]); 9.92 nM in assay [5] (Homo sapiens, NCI-H1975, 72 h). In addition, the IC50 turned out to be 1620 nM in assay [6] (Homo sapiens, A-431, 72 h) and 4820 nM in assay [8].
For `C=CC(=O)Nc1cc(Nc2nccc(-n3nc(NC)c4ncccc43)n2)c(OC)cc1N(C)CCN(C)C` [Example 56, N-(5-(4-(3-(Methylamino)-1H-pyrazolo[4,3-b]pyridin-1-yl)pyrimidin-2-ylamino)-2-(N-(2-(dimethylamino)ethyl)-N-methylamino)-4-methoxyphenyl) acrylamide], the IC50 in assay [1] (Homo sapiens, PC-9, 2 h) was determined as 4.04 nM; in assay [2] (setting [11]), 79.9 nM; in assay [7], 433 nM; in assay [3] (Homo sapiens, PC-9, 72 h), 1.66 nM; in assay [4] (setting [12]), 6.28 nM; in assay [5] (Homo sapiens, NCI-H1975, 72 h) it was 2.77 nM. For the same molecule, the IC50 was 511 nM in assay [6] (Homo sapiens, A-431, 72 h) and 637 nM in assay [8].
As to `C=CC(=O)Nc1cc(Nc2nccc(-n3nc(NCC)c4ccccc43)n2)c(OC)cc1N(C)CCN(C)C` [Example 41], the IC50 in assay [1] (Homo sapiens, PC-9, 2 h) turned out to be 6.26 nM; in assay [2] (setting [11]) it was 137 nM; in assay [7] it was 1270 nM; in assay [3] (Homo sapiens, PC-9, 72 h), 7.52 nM; in assay [4] (setting [12]), 11.9 nM; in assay [5] (Homo sapiens, NCI-H1975, 72 h), 9.23 nM. Moreover, the IC50 amounted to 295 nM in assay [6] (Homo sapiens, A-431, 72 h) and 1420 nM in assay [8].
As to `C=CC(=O)Nc1cc(Nc2nccc(-n3cc(C(C)=O)c4ccccc43)n2)c(OC)cc1N(C)CCN(C)C` [Example 31, N-(5-((4-(3-Acetyl-1H-indol-1-yl)pyrimidin-2-yl)amino)-2-((2-(dimethylamino)ethyl)(methyl)amino)-4-methoxyphenyl) acrylamide], the concentration for half-maximal inhibition (IC50) in assay [1] (Homo sapiens, PC-9, 2 h) was 13.7 nM; in assay [2] (setting [11]), 161 nM; in assay [7], 814 nM; in assay [3] (Homo sapiens, PC-9, 72 h) it was 8.54 nM; in assay [3] (72 h), 8.39 nM; in assay [4] (setting [12]) it was 7.64 nM. For the same molecule, the IC50 was determined as 13.9 nM in assay [5] (Homo sapiens, NCI-H1975, 72 h); 11.6 nM in assay [5] (72 h); 1070 nM in assay [6] (Homo sapiens, A-431, 72 h); 942 nM in assay [6] (72 h); 765 nM in assay [8].
On to `C=CC(=O)Nc1cc(Nc2nccc(-n3nc(NC(C)C)c4ccccc43)n2)c(OC)cc1N(C)CCN(C)C` [Example 43], for which the IC50 in assay [1] (Homo sapiens, PC-9, 2 h) worked out at 10.3 nM; in assay [2] (setting [11]) it was 73.4 nM; in assay [3] (Homo sapiens, PC-9, 72 h) it was 3.3 nM; in assay [4] (setting [12]), 10.2 nM; in assay [5] (Homo sapiens, NCI-H1975, 72 h), 3.96 nM; in assay [6] (Homo sapiens, A-431, 72 h), 218 nM.
In the case of `C=CC(=O)N1CC[C@@H](Oc2nc(Nc3ccc(N4CCC(N5CCN(C)CC5)CC4)cc3)c(C(N)=O)nc2CC)C1` [ASP8273], the half-maximal inhibitory concentration (IC50) was 37.3 nM in assay [1] (Homo sapiens, PC-9, 2 h); 218 nM in assay [2] (setting [11]); 15.9 nM in assay [3] (Homo sapiens, PC-9, 72 h); 7.8 nM in assay [4] (setting [12]); 12.1 nM in assay [5] (Homo sapiens, NCI-H1975, 72 h); 675 nM in assay [6] (Homo sapiens, A-431, 72 h).
Regarding `Cc1cc(C(=O)Nc2nc3cccc(Cl)c3n2[C@@H]2CCCCN(C(=O)/C=C/CN(C)C)C2)ccn1` [EGF 816], the half-maximal inhibitory concentration (IC50) in assay [1] was 25.4 nM; in assay [2] (setting [9]), 276 nM; in assay [3] (72 h), 67.3 nM; in assay [4] (setting [10]), 43.7 nM; in assay [5] (72 h), 77.9 nM; in assay [6] (72 h), 2850 nM.
For `C=CC(=O)Nc1cc(Nc2nccc(-n3nc(C(C)(C)O)c4ccccc43)n2)c(OC)cc1N(C)CCN(C)C` [Example 45], the half-inhibitory concentration (IC50) in assay [1] (Homo sapiens, PC-9, 2 h) is 10.6 nM; in assay [2] (setting [11]) it was 76.2 nM; in assay [7], 1020 nM; in assay [3] (Homo sapiens, PC-9, 72 h) it was 4.4 nM; in assay [4] (setting [12]) it was 3.83 nM; in assay [5] (Homo sapiens, NCI-H1975, 72 h) it was 2.61 nM. Moreover, the IC50 worked out at 461 nM in assay [6] (Homo sapiens, A-431, 72 h) and 1270 nM in assay [8].
In the case of `C=CC(=O)Nc1cc(Nc2nccc(-c3c[nH]c4c(OC)nccc34)n2)c(OC)cc1N(C)CCN(C)C` [Example 23, N-(2-((2-(Dimethylamino)ethyl)(methyl)amino)-4-methoxy-5-((4-(7-methoxy-1H-pyrrolo[2,3-c]pyridin-3-yl)pyrimidin-2-yl)amino)phenyl) acrylamide], the IC50 came out at 1.37 nM in assay [1] (Homo sapiens, PC-9, 2 h); 26.1 nM in assay [2] (setting [11]); 325 nM in assay [7]; 3.82 nM in assay [3] (Homo sapiens, PC-9, 72 h); 3.38 nM in assay [3] (72 h); 1.15 nM in assay [4] (setting [12]). Further, the IC50 was found to be 2.46 nM in assay [5] (Homo sapiens, NCI-H1975, 72 h); 2.63 nM in assay [5] (72 h); 271 nM in assay [8].
Turning to `C=CC(=O)Nc1cc(Nc2nccc(-c3cc(C#N)c4[nH]cc(C)c4c3)n2)c(OC)cc1N(C)CCN(C)C` [Example 67, N-(5-(4-(7-Cyano-3-methyl-1H-indol-5-yl)pyrimidin-2-ylamino)-2-((2-(dimethylamino)ethyl)(methyl)amino)-4-methoxyphenyl) acrylamide], the IC50 in assay [1] (Homo sapiens, PC-9, 2 h) was found to be 4.76 nM; in assay [2] (setting [11]), 110 nM; in assay [7], 403 nM; in assay [3] (Homo sapiens, PC-9, 72 h), 2.07 nM; in assay [4] (setting [12]), 1.06 nM; in assay [5] (Homo sapiens, NCI-H1975, 72 h) it was 1.05 nM. The IC50 was found to be 506 nM in assay [6] (Homo sapiens, A-431, 72 h) and 243 nM in assay [8].
In the case of `C=CC(=O)Nc1cc(Nc2nccc(-c3cnc(OC)c4c3ccn4C)n2)c(OC)cc1N(C)CCN(C)C` [Example 57, N-(5-(4-(7-Methoxy-1N-methyl-1H-pyrrolo[2,3-c]pyridin-4-yl)pyrimidin-2-ylamino)-2-(N-(2-(dimethylamino)ethyl)-N-methylamino)-4-methoxyphenyl) acrylamide], the IC50 in assay [1] (Homo sapiens, PC-9, 2 h) is 14 nM; in assay [2] (setting [11]), 134 nM; in assay [7] it was 290 nM; in assay [3] (Homo sapiens, PC-9, 72 h) it was 3.63 nM; in assay [4] (setting [12]), 8.5 nM; in assay [5] (Homo sapiens, NCI-H1975, 72 h), 5.1 nM. Besides, the 50% inhibitory concentration (IC50) turned out to be 267 nM in assay [6] (Homo sapiens, A-431, 72 h) and 207 nM in assay [8].
